According to patent publication US20230302104A1, “TREATMENT AND/OR PREVENTION OF A DISEASE OR A SYNDROME RELATED TO A VIRUS INFECTION” (priority 2020, published 2023):

Legend:
[1] = tested on: SARS-CoV-2 spike pseudovirus entry in ACE2 overexpressing A549 human lung alveolar basal epithelium cells; assay type: cell-based
[2] = tested on: SARS-CoV-2 spike pseudotyped lentivirus entry in HeLa cells overexpressing TMPRSS2; assay type: cell-based; conditions: 10 µM

| Substance | effect on SARS-CoV-2 pseudoviral entry in combination with IFN-beta-1a [1] | inhibitory effect on SARS-CoV-2 pseudoviral cell-entry [2] | SARS-CoV-2 pseudovirus entry [1] |
| --- | --- | --- | --- |
| plasma derived AAT | additive inhibitory effect | no inhibitory effect | – |
| rhAAT | – | – | inhibits viral entry of several viruses |
